According to patent US20230364079A1, “COMPOUND AS BRAIN-PERMEABLE BTK OR HER2 INHIBITOR, PREPARATION METHOD THEREFOR, AND USE THEREOF” (CHENGDU HYPERWAY PHARMACEUTICALS CO., LTD., priority 2020, published 2023):
Where two headings read alike, the source gives them in different places. One block for each compound: values may come before it.

Assays:
[1] = Pharmacokinetic test, oral, SD rats; format: in vivo; settings: oral 10 mg/kg, plasma
Outline: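 Male/female status unstated; SD rats (3 per group) dosed orally at 10 mg/kg after overnight fast, refed 4 h post-dose. Plasma from serial blood draws stored at -20° C, protein-precipitated with internal standard solution and quantified by LC-MS/MS.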

[2] = molecular target: BTK mutation-type C481S kinase (Homo sapiens (Human), UniProt Q06187, C481S); test: BTK-C481S kinase activity inhibition test in vitro (Caliper EZ Reader); format: biochemical
Method: In the tests on the activity of inhibiting BTK and HER2 kinase in vitro in the examples of the present disclosure, powder of the compound was dissolved in 100% DMSO to prepare a 10 mM stock solution and stored at-20° C. in the dark. […] In addition, the compounds were subjected to experiments such as liver microsome metabolic stability, rat PK, rat brain penetration rate, and drug efficacy model in the examples of the present disclosure.
Compound powders were dissolved in 100% DMSO to make 10 mM stock solutions, which were stored at -20° C. in the dark.
2: Kinase Reaction Process
(1) Preparation of 1 × Kinase buffer.
(5) After centrifugation at 1000 rpm for 30 seconds, the reaction plate was shaken to mix well and incubated at room temperature for 10 min.
(6) A 5/3-fold final concentration of a mixed solution of ATP and Kinase substrate 2 was prepared with 1 × Kinase buffer.
(7) 15 µL of the mixed solution of ATP and substrate with 5/3-fold final concentration was added to start the reaction.
(8) The 384-well plate was centrifuged at 1000 rpm for 30 seconds, shaken to mix well, and incubated at room temperature for 10 min.
(9) 30 µL of a stop solution was added to stop the kinase reaction, and after centrifugation at 1000 rpm for 30 seconds, the plate was shaken to mix well;
(10) The conversion rate was read with Caliper EZ Reader.
where Conversion%_sample indicates the conversion rate reading of the sample; Conversion%_min is the average reading of the negative control wells, representing the conversion rate reading of the wells without enzyme activity; Conversion%_max is the average reading of the ratio of the positive control wells, representing the conversion rate reading of the wells without compound inhibition.
Dose-Response Curve Fitting
With the log value of the concentration as the X-axis, and the percentage inhibition rate as the Y-axis, the dose-effect curve was fitted using the log(inhibitor) vs. response-Variable slope of the analysis software GraphPad Prism 5, so as to determine the IC50 value of each compound on the enzyme activity.
The calculation formula was: […]

[3] = Liver microsome metabolic stability test, human; format: in vitro ADME
Method: (§1) 1: To the sample wells of T0, T5, T10, T20, T30, T60 and NCF60, 10 µL of the test or reference working solution and 80 µL of microsome working solution (hepatic microsome with a protein concentration of 0.5 mg/mL) were added, and to Blank60 well, only the microsome working solution was added. Then samples of the Blank60, T5, T10, T20, T30 and T60 other than T0 and NCF60 were placed in a 37° C. water bath and pre-incubated for about 10 min.
(§2) 2: To the T0 sample well, 300 µL of stop solution (containing 200 ng/mL tolbutamide and 200 ng/mL labetalol in acetonitrile solution) was added first, followed by 10 µL of NADPH regeneration system working solution.
(§3) 3: After the pre-incubation of Blank60, T5, T10, T20, T30 and T60 incubation plates, 10 µL of NADPH regeneration system working solution was added to each sample well to start the reaction, and 10 µL of 100 mM potassium phosphate buffer was added to the NCF60 sample well.
(§4) 4: After incubation for an appropriate time (such as 5, 10, 20, 30 and 60 min), to each test sample well and control well of the Blank60, T5, T10, T20, T30, T60 and NCF60 plates, 300 µL of stop solution was added to terminate the reaction.
(§5) 5: All sample plates were shaken to mix well and centrifuged at 4000 rpm for 20 min, and 100 µL of the supernatant of the test sample or control sample was taken and diluted with 300 µL of pure water for LC-MS/MS analysis.
(§6) 6: Data analysis: T½ and CLint(mic) (µL/min/mg) values were calculated according to the first-order elimination kinetics. The first-order elimination kinetics equation was: […]

TMD8 cell proliferation = test: In vitro cell proliferation inhibitory activity test (CTG), TMD8; format: cell-based, human; settings: TMD8 cells, 72 h
Method: Test Example 4: In Vitro Cell Proliferation Inhibitory Activity Test
Cells were cultured in 1640 medium, added with 10% inactivated FBS and 1% double antibiotics, and cultured at 37° C. and 5% CO2.
(1) Cells were routinely cultured until the cell density was 80%-90%, and the cells were harvested when their number reached the requirement.
(2) Cells were resuspended with corresponding culture medium, counted, and prepared into cell suspension at appropriate density.
(3) The cell suspension was added to a 96-well plate, 100 µL per well.
(4) Cells were cultured overnight in a 37° C., 5% CO2 incubator.
(1) The compounds to be tested were diluted with DMSO to make a stock solution with a final concentration of 20 mM for later use.
(2) The stock solution was diluted 10 times from 20 mM to 2 mM with DMSO, and then diluted 3 times from 2 mM to 9 concentrations.
(3) The blank control wells were cells plus 0.5% DMSO, as high-reading control wells.
(4) Wells with no cells and only medium were used as low-reading control wells.
4: Cell Treatment With Compound
(1) 24 h after the cells were plated, the compounds acted alone, and 99 µL of growth medium was added to each well, followed by 1 µL of the compound prepared in step 3. The plate was shaken gently to mix uniformly, and then placed in a 37° C., 5% CO2 incubator.
(2) The cell plate was placed in an incubator for 72 h.
5: Detection by CTG Method
(1) The cell plate to be tested was placed at room temperature for 30 min, and 100 µL of medium was discarded from each well.
(2) 100 µL of CTG reagent (CelltiterGlo kit) was added to each well, placed on a fast shaker for 2 min, and stood at room temperature in the dark for 30 min.
(3) The chemiluminescent signal value was read with the Envision instrument.
IC50 was calculated by using GraphPad Prism 8 software. The IC50 (half inhibitory concentration) of the compound was derived using the following nonlinear fitting formula, and the results are shown in the following table: […]

[4] = Liver microsome metabolic stability test, rat; format: in vitro ADME
Method: as §1, §2, §3, §4, §5, §6

BTK wild-type kinase = BTK wild-type kinase (Homo sapiens (Human), UniProt Q06187); test: BTK kinase activity inhibition test in vitro (Caliper EZ Reader); format: biochemical
Outline: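 Compound (10 mM DMSO stock) preincubated with kinase 10 min at room temperature, then ATP plus kinase substrate 2 added, 10 min reaction at room temperature before stop. Substrate conversion read by Caliper mobility shift; inhibition normalised to no-enzyme and no-compound controls, IC50 by variable-slope log(inhibitor) fit.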

[5] = test system: DOHH-2-luc tumor cells in the mouse brain; test: DOHH-2-Luc intracerebral tumor drug efficacy model test; format: in vivo
Method: Test Example 8: DOHH-2-Luc Intracerebral Tumor Drug Efficacy Model Test
DOHH-2-luc tumor cells were cultured in vitro with RPMI 1640 medium containing 10% fetal bovine serum and 500 ng/mL puromycin in a 37° C., 5% CO2 incubator. […] Tumor cells in logarithmic growth phase were used for inoculation of tumors in vivo.
2. Inoculation of Tumor Cell and Grouping
After the animal was anesthetized by intramuscular injection of Zoletil, it was fixed on the operating table in a prone position. The skin on the top of the head was disinfected with iodine and 75% alcohol respectively, and the skin was cut about 0.5 cm along the midline of the head to expose the coronal and sagittal lines. Being located about 0.5-1.0 mm above the coronal line and about 2 mm to the right of the sagittal line by using a brain locator, a hole was drilled with a 1 mL syringe needle. The micro-injector was inserted vertically to a depth of 3 mm at the location, slowly (about 1 min) injected with 3 × 10^5 DOHH-2-luc tumor cells /2 µL suspension and kept for 1 min. After pulling out the needle, the needle hole was quickly sealed with bone wax, and the wound was sutured with a stapler. About the 7th day after tumor inoculation, the animals were randomly divided into 5 groups according to the body weight of the animals and the optical signal intensity of the tumor site, with 5 animals in each group.
The mice were imaged 1-2 times a week according to their state using the small animal in vivo imaging system IVIS Lumina III (Perkin Elmer). The bioluminescence imaging (BLI, unit: photons/s) signal intensity at the tumor cell inoculation site of mouse was monitored as the main indicator for evaluating tumor growth and drug efficacy. The specific operation is as follows:
The mice were intraperitoneally injected with D-luciferin (15 mg/mL, 5 µL/g according to the body weight of the experimental animal), and then inhaled anesthetized with 1%-2% isoflurane. 10 min after the injection of D-luciferin, the animals were imaged with IVIS Lumina III. The data were analyzed and processed using Living Image software (Perkin Elmer), and the optical signal intensity in ROI (regions of interest) of each animal was calculated.

[6] = test system: TMD8 mouse subcutaneous xenograft tumor; test: TMD8 pharmacodynamic model test (mouse subcutaneous xenograft tumor); format: in vivo
Method: Test Example 7: TMD8 Pharmacodynamic Model Test
Human diffuse large B-cell lymphoma TMD8 cells were monolayer-cultured in vitro in RPMI1640 medium with 10% fetal bovine serum, 100 U/mL penicillin and 100 µg/mL streptomycin, in a 37° C., 5% CO2 incubator. Routine digestion with trypsin-EDTA was performed twice a week for passaging. When the cell density was 80%-90% and the number reached the requirement, cells were harvested, counted and inoculated. 0.2 ml (1×10^7 cells) of TMD8 cells (added with matrigel at a volume ratio of 1:1) were subcutaneously inoculated on the right back of each mouse. The mice were administered in groups when the average tumor volume reached about 137 mm^3. Tumor diameters were measured twice a week with vernier calipers. The tumor volume was calculated by the formula V = 0.5 a × b^2, where a and b represent the long and short diameters of the tumor, respectively.

[7] = dog PK experiments; cited from earlier work
[8] = liver microsomes, 0.5 mg/mL protein, read-out: T½

BTK mutation-type C481S kinase, sequence (Q06187 whole entry C481S): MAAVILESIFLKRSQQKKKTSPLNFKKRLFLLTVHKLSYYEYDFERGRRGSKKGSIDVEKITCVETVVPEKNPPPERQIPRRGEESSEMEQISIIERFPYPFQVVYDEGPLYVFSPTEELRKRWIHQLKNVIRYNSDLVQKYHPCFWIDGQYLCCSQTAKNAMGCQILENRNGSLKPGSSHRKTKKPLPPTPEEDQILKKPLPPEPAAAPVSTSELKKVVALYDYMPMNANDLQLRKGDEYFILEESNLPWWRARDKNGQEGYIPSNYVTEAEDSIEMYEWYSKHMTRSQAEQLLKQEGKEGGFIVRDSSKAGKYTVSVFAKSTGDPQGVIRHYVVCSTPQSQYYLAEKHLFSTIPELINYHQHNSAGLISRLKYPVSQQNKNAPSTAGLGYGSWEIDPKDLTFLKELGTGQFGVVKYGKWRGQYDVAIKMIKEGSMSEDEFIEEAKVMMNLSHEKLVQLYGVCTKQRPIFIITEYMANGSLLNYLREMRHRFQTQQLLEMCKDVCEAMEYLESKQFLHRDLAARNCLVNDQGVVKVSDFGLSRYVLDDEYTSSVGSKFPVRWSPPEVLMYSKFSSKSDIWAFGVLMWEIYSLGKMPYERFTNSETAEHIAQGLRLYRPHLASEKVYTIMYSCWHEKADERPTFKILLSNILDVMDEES
BTK wild-type kinase, sequence (Q06187 whole entry): as the sequence (Q06187 whole entry C481S) above, with S481C counted along it

AUC(0-∞) [1]: 77004 ng·h/mL
Cl [1]: 2.18 mL/min/kg
Cmax [1]: 25188 ng/mL
T½ [1]: 2.21 h
IC50 [2]: < 5 nM
CLint [3]: <9.6 µL/min/mg
T½ ([3]; 0.5 mg/mL protein): >2.42 h
%Remaining (60 min) [3]: 122.5%
CLint [4]: <9.6 µL/min/mg
T½ ([4]; 0.5 mg/mL protein): >2.42 h
%Remaining (60 min) [4]: 95.5%
IC50 (BTK wild-type kinase): < 5 nM
Compound: Nc1nccn2c([C@@H]3CC[C@H](CO)OC3)nc(-c3ccc(C(=O)Nc4ccccn4)cc3)c12 (single isomer, unassigned) [Compound 2-A-P1]
IC50 (TMD8 cell proliferation): 61.9 nM

IC50 [2]: < 5 nM
IC50 (BTK wild-type kinase): < 5 nM
Compound: Nc1nccn2c(C3CCC(CO)OC3)nc(-c3ccc(C(F)(F)c4ccccc4)cc3)c12 (single isomer, unassigned) [Compound 111-P1]
inhibitory effect against the tumor compared with Tirabrutinib ([5]; DOHH2 tumor model in the mouse brain, same dose of 30 mg/kg (BID), FIG. 3): significantly better inhibitory effect against the tumor
tumor size in the brain by fluorescence image ([5]; DOHH-2-Luc intracerebral model, same dose, FIG. 4): very good inhibitory effect against the tumor
side effects ([5]; mouse, 30 mg/kg (BID), after 21 days of administration): no side effects
IC50 (TMD8 cell proliferation): 71.9 nM
TGI (tumor inhibition rate) ([6]; 20 mg/kg): 93%
TGI relative to that of Tirabrutinib ([6]; 20 mg/kg): ~2 times
inhibitory effect against the tumor compared with Tirabrutinib ([6]; same dose of 20 mg/kg, FIG. 2): significantly better inhibitory effect against the tumor

Cl [1]: 10.3 mL/min/kg
AUC(0-inf) ([1]; rat): 16200 ng·h/mL
Cmax ([1]; rat, read-out: Cmax): 2410 ng/mL
half-life ([1]; rat, read-out: T½ (converted)): 3.98 h
%Remaining (60 min) [3]: 94.2%
half-life [3, 8]: > 2.42 h
%Remaining (60 min) [4]: 81.1%
half-life [4, 8]: > 2.42 h
Compound: O=C(c1ccc(Oc2ccccc2)cc1Cl)c1c[nH]c2ncnc(N[C@@H]3CC[C@@H](CO)OC3)c12 [ARQ-531, reference compound]
bioavailability [7]: 38%
